Results: ChEMBL document CHEMBL5604063, “ASAP - DENV-2 NS2B-NS3 protease fluorescence dose response” (2024)
pIC50: −log10 of the molar value. Several values for one entry are separate records, joined by “and”; a condition that tells them apart may be missing. Equal values may be shown once.

Molecular target: Genome polyprotein (dengue virus type 2, UniProt P29990)
Assay type: functional, Thailand/16681/1984

Genome polyprotein, sequence (P29990 1346-1475 limits assumed): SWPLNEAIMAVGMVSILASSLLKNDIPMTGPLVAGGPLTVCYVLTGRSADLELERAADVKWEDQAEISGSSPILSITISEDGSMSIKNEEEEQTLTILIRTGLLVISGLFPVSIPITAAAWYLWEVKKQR
Genome polyprotein, sequence (P29990 1476-2093 limits assumed): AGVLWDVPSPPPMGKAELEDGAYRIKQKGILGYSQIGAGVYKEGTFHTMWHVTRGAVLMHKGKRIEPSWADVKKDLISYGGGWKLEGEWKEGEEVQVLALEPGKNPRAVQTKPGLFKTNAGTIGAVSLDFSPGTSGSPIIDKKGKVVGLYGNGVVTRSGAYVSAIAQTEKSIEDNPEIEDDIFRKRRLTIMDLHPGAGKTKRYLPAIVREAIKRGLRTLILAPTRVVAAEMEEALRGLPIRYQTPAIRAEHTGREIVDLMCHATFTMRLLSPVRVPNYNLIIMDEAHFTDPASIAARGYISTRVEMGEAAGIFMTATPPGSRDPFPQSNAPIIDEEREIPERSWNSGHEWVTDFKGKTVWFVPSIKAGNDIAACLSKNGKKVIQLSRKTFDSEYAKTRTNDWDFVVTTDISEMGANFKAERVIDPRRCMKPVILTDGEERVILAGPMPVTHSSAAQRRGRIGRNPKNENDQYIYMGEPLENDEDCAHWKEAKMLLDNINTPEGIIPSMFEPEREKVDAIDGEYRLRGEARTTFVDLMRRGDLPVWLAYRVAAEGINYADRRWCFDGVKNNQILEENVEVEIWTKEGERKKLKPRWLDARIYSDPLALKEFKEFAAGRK

SMILES	pIC50
NCc1cccc(NC(=O)[C@@H](NC(=O)OCc2ccccc2)c2ccc(Br)cc2)c1	4.05 and 4.20
O=C1C[C@@H](CNC(=O)c2cc(Cl)ccc2NS(=O)(=O)c2ccc(Oc3ccccc3Cl)cc2)CN1	4.10
COC1CN(C(=O)c2cc(Cl)ccc2NS(=O)(=O)c2ccc(Oc3ccccc3Cl)cc2)C1	< 4.00
CC(C)(C)OC(=O)Cn1ccnc(N2CC[C@@H](CO)C2)c1=O	< 4.00
NC[C@H]1C[C@@H](NC(=O)[C@@H](NC(=O)OCc2ccccc2)c2ccc(OCc3ccccc3)cc2)C1	< 4.00
CC[C@H](C#N)NC(=O)c1cc(Cl)ccc1NS(=O)(=O)c1ccc(Oc2ccccc2Cl)cc1	4.37
O=C(NC[C@H]1CCCO1)c1cc(Cl)ccc1NS(=O)(=O)c1ccc(Oc2ccccc2Cl)cc1	< 4.00
O=C(NCc1c[nH]nn1)c1cc(Cl)ccc1NS(=O)(=O)c1ccc(Oc2ccccc2Cl)cc1	4.52
Cc1cc(Cl)c(C)c(C(=O)O)c1NS(=O)(=O)c1ccc(Oc2ccccc2Cl)cc1	4.44
O=C(N[C@@H](C(=O)NC1CNC1)c1ccc(OCc2ccccc2)cc1)OCc1ccccc1	< 4.00
C[C@@H](C(=O)Nc1cccc(CN)c1)c1ccc(OCc2ccccc2)cc1	< 4.00
NC[C@H]1CCN1C(=O)[C@@H](NC(=O)OCc1ccccc1)c1ccc(OCc2ccccc2)cc1	< 4.00
CC(C)Oc1ccc(S(=O)(=O)Nc2ccc(Cl)cc2C(=O)O)cc1	< 4.00
O=C(NC[C@H]1CCOC1)c1cc(Cl)ccc1NS(=O)(=O)c1ccc(Oc2ccccc2Cl)cc1	4.48 and 4.62
O=C(O)c1cc(Cl)ccc1CS(=O)(=O)c1ccc(Oc2ccccc2Cl)cc1	< 4.00
NCc1cccc(NC(=O)[C@@H](NC(=O)OCc2ccccc2)C2CCCCC2)c1	< 4.00
CC(C)(C)OC(=O)NCc1cccc(NC(=O)[C@@H](NC(=O)OCc2ccccc2)c2ccc(O)cc2)c1	< 4.00
Cc1cc(C(=O)O)c(NS(=O)(=O)c2ccc(Oc3ccccc3Cl)cc2)cc1F	5.06
NCc1cccc(NC(=O)C[C@@H](NC(=O)OCc2ccccc2)c2ccc(OCc3ccccc3)cc2)c1	4.98
CCn1cc(-c2ccccc2)nc(N2CC[C@@H](CO)C2)c1=O	< 4.00
Cn1cc(C(=O)O)c(NS(=O)(=O)c2ccc(Oc3ccccc3Cl)cc2)n1	< 4.00
NCc1cccc(NC(=O)[C@@H](Cc2ccccc2)NC(=O)OCc2ccccc2)c1	< 4.00
COc1ccc(S(=O)(=O)Nc2cc(F)c(Cl)cc2C(=O)NCC(C)C)cc1	4.01
NCc1cccc(NC(=O)[C@@H](NC(=O)OCc2ccccc2)c2c(F)cccc2F)c1	< 4.00
C[C@@H](N)c1cccc(NC(=O)[C@@H](NC(=O)OCc2ccccc2)c2ccc(OCc3ccccc3)cc2)c1	< 4.00

SMILES	pIC50
O=C(O)c1cc(Cl)ccc1NS(=O)(=O)c1ccc(Oc2ccccc2)cc1	4.66
Cc1cnn(-c2cc(C(=O)O)c(NS(=O)(=O)c3ccc(Oc4ccccc4Cl)cc3)cc2F)c1	5.21
CCn1cc(Cl)nc(N2CC[C@@H](CO)C2)c1=O	< 4.00
NC(=O)[C@H](c1c[nH]c2ccccc12)N1CCC(c2cnc3ccc[nH]c2-3)CC1	< 4.00
O=C(O)c1cc(OC2CCOCC2)c(F)cc1NS(=O)(=O)c1ccc(Oc2ccccc2Cl)cc1	4.86
OC[C@H]1CCN(c2cncc(N3CCOCC3)n2)C1	< 4.00
C#CCn1ccnc(N2CC[C@H](CO)C2)c1=O	< 4.00
O=S(=O)(c1ccc(Oc2ccccc2Cl)cc1)n1ccc2cc(Cl)ccc21	< 4.00
Cc1cc(C(=O)O)c(NS(=O)(=O)c2ccc(Oc3ccccc3)cc2)cc1F	4.60
CC(C)Oc1cncc(N2CC[C@@H](CO)C2)c1	< 4.00
O=C(O)c1cc(Cl)c(Cl)cc1NS(=O)(=O)c1ccc(Oc2ccccc2Cl)cc1	5.18
Cn1cc(NS(=O)(=O)c2ccc(Oc3ccccc3Cl)cc2)c(C(=O)O)n1	< 4.00
O[C@@H]1CN(Cc2c[nH]c3ccccc23)C[C@H]1c1c[nH]c2ccccc12	< 4.00
CCn1ccnc(-n2cc([C@@H]3NC(=O)NC3=O)c3ccccc32)c1=O	< 4.00
CCn1cc(-c2ccnc(C)c2)nc(N2CC[C@@H](CO)C2)c1=O	< 4.00
NCc1cccc(NC(=O)[C@@H](N)c2ccc(OCc3ccccc3)cc2)c1	< 4.00
NCc1cccc(NC(=O)[C@H](NC(=O)OCc2ccccc2)c2ccc(OCc3ccccc3)cc2)c1	5.09
NCc1cccc(CNC(=O)[C@@H](NC(=O)OCc2ccccc2)c2ccc(OCc3ccccc3)cc2)c1	4.66 and 4.92
O=C(Nc1ccc(Cl)cc1C(=O)O)c1ccc(Oc2ccccc2Cl)cc1	4.37
O=C(O)c1cc(Oc2ccc(F)cc2)c(F)cc1NS(=O)(=O)c1ccc(Oc2ccccc2Cl)cc1	5.42
CCn1ccc(-c2ccc([C@@H](NC(=O)OCc3ccccc3)C(=O)Nc3cccc(CN)c3)cc2)n1	< 4.00
COC(=O)c1cc(Cl)ccc1NS(=O)(=O)c1ccc(Br)cc1	< 4.00
C[C@@H](O)CNC(=O)c1cc(Cl)ccc1NS(=O)(=O)c1ccc(Oc2ccccc2Cl)cc1	4.25
O=C(O)c1c(NS(=O)(=O)c2ccc(Oc3ccccc3Cl)cc2)ccc(Cl)c1F	4.74
CCn1cc(C(=O)NC)nc(N2CC[C@@H](CO)C2)c1=O	< 4.00

SMILES	pIC50
CC(=O)N[C@@H](C(=O)Nc1cccc(CN)c1)c1ccc(OCc2ccccc2)cc1	< 4.00
NCc1cccc(CNC(=O)[C@H](NC(=O)OCc2ccccc2)c2ccc(OCc3ccccc3)cc2)c1	4.81
CCn1cc(C#N)nc(N2CC[C@@H](CO)C2)c1=O	< 4.00
NCc1cccc(NC(=O)[C@H]2c3ccc(OCc4ccccc4)cc3CCN2C(=O)OCc2ccccc2)c1	< 4.00
NCc1cccc(NC(=O)[C@@H]2c3ccsc3CCN2C(=O)OCc2ccccc2)c1	< 4.00
O=C(O)c1cc2c(cc1NS(=O)(=O)c1ccc(Oc3ccccc3Cl)cc1)CCC2	5.10
CC(C)(C)Oc1ccc(S(=O)(=O)Nc2ccc(Cl)cc2C(=O)O)cc1	< 4.00
NCc1cccc(NC(=O)[C@@H](NC(=O)OCc2ccccc2)c2ccc(-c3ccccc3F)cc2)c1	4.98
NCc1cc(Cl)ccc1NS(=O)(=O)c1ccc(Oc2ccccc2Cl)cc1	< 4.00
COC(=O)c1cc(Cl)ccc1NS(=O)(=O)c1ccc(Oc2ccccc2Cl)cc1	< 4.00
O=C(O)[C@H]1CCCC[C@@H]1NS(=O)(=O)c1ccc(Oc2ccccc2Cl)cc1	< 4.00
O=C(NCC1CC1)c1cc(Cl)cc(NS(=O)(=O)c2ccc(Oc3ccccc3Cl)cc2)c1	4.63
O=c1c(N2CC[C@H](CO)C2)nccn1C1CC1	< 4.00
O=C(O)[C@@H]1CC2(CC[C@@H]1NS(=O)(=O)c1ccc(Oc3ccccc3Cl)cc1)CC2	< 4.00
O=C(NCC(F)(F)F)c1cc(Cl)c(F)cc1NS(=O)(=O)c1ccc(Oc2ccccc2Cl)cc1	5.29
COC(=O)c1cc(Cl)ccc1NS(=O)(=O)c1ccc(Cl)nc1	< 4.00
NCc1cccc(NC(=O)CN(C(=O)OCc2ccccc2)c2ccc(OCc3ccccc3)cc2)c1	4.46
COc1cc(N[C@@H](C(=O)N2CCc3ccc(OC(F)(F)F)cc32)c2ccc(Cl)cc2)cc(OCCCC(=O)O)c1	4.85
NCc1cccc(NC(=O)[C@@H](NC(=O)OCc2ccccc2)c2cccnc2)c1	< 4.00
COc1ccc(S(=O)(=O)Nc2ccc(Cl)cc2C(=O)O)cc1	< 4.00
O=C(O)c1cc(Cl)ccc1NS(=O)(=O)c1ccc(Br)cc1	< 4.00
NCc1cccc(NC(=O)c2cc(OCc3ccccc3)ccc2CNC(=O)OCc2ccccc2)c1	4.61
O=C(O)c1cc(Cl)ccc1S(=O)(=O)Nc1ccc(Oc2ccccc2Cl)cc1	4.78
O=C(O)[C@@H]1CCCC[C@H]1NS(=O)(=O)c1ccc(Oc2ccccc2Cl)cc1	< 4.00
O=C(O)c1cc(F)c(F)cc1NS(=O)(=O)c1ccc(Oc2ccccc2Cl)cc1	4.95

SMILES	pIC50
O=C(N[C@@H]1CCc2cn[nH]c2C1)c1cccc2c1NC(=O)[C@]1(CCCN1)C2	< 4.00
O=C(c1cc(Cl)ccc1NS(=O)(=O)c1ccc(Oc2ccccc2Cl)cc1)N1CCC[C@H](O)C1	4.20
CN(C(=O)[C@@H](NC(=O)OCc1ccccc1)c1ccc(OCc2ccccc2)cc1)c1cccc(CN)c1	< 4.00
O=C(O)c1nscc1NS(=O)(=O)c1ccc(Oc2ccccc2Cl)cc1	4.20
OC[C@H]1CCN(c2ccnc(C(F)F)c2)C1	< 4.00
O=C(NCc1cnn(CCO)c1)c1cccc2c1NC(=O)[C@]1(CCCN1)C2	< 4.00
O=C(O)c1cc(NS(=O)(=O)c2ccc(Oc3ccccc3Cl)cc2)ccc1Cl	< 4.00
CCn1ccnc(N2C[C@@H](OC(=O)OC)[C@H](c3c[nH]c4ccccc34)C2)c1=O	< 4.00
Cc1cccc([C@@H](NC(=O)OCc2ccccc2)C(=O)Nc2cccc(CN)c2)n1	< 4.00
Cn1cc(CN2CCC(c3c[nH]c4cccnc34)CC2)c2ccccc21	< 4.00
CC(C)(C)OC(=O)NCc1cccc(NC(=O)[C@@H](NC(=O)OCc2ccccc2)c2cccc(O)c2)c1	< 4.00
Cc1cc(C=O)c(C)n1-c1cccc(C(=O)N2CCN(C)CC2)c1	< 4.00
O=C(N[C@@H](C(=O)N[C@H]1CCCNC1)c1ccc(OCc2ccccc2)cc1)OCc1ccccc1	< 4.00
O=C(O)[C@@H]1CCCC[C@@H]1NS(=O)(=O)c1ccc(Oc2ccccc2Cl)cc1	< 4.00
NCc1ccc(C[C@H](NC(=O)OCc2ccccc2)C(=O)Nc2cccc(CN)c2)cc1	< 4.00
COc1ccc(S(=O)(=O)Nc2cc(F)c(Cl)cc2C(=O)O)cc1	< 4.00
COc1cc(NS(=O)(=O)c2ccc(Oc3ccccc3Cl)cc2)c(C(=O)O)cc1Cl	5.06
C[C@@H](CS(C)(=O)=O)NC(=O)c1cc(Cl)ccc1NS(=O)(=O)c1ccc(Oc2ccccc2Cl)cc1	4.09
Cc1cc(C(=O)N[C@@H]2CC[C@@H]3CN(C)C[C@@H]32)sc1C=O	< 4.00
Cc1ncc(-c2ccc([C@@H](NC(=O)OCc3ccccc3)C(=O)Nc3cccc(CN)c3)cc2)s1	4.53
CCn1ccnc(N(C)[C@@H](CO)Cc2c[nH]c3ccccc23)c1=O	< 4.00
OC[C@H]1CCN(c2cnc3ccccc3n2)C1	< 4.00
CCn1ccnc(N2C[C@H](c3c[nH]c4ccccc34)[C@H](OC(C)=O)C2)c1=O	< 4.00
NCc1ccc2c(c1)N(C(=O)[C@@H](NC(=O)OCc1ccccc1)c1ccc(OCc3ccccc3)cc1)CC2	< 4.00
